Experimental data from patent US8309528B2, “Two pore channels as regulators of proliferation in cancer” (The Trustees of Columbia University in the City of New York, priority 2006, dated 2012).

How the values were obtained:
[1] = biological target: T1, human TREK-1 (Homo sapiens, UniProt O95069); experiment: Patch clamp of TREK-1 current in CHO cells transfected with human TREK-1; type: cell-based; settings: CHO cells heterologously expressing human TREK-1; ramp protocol -130 mV to +40 mV in 6 s
T1 construct: expressed in transfected cells; host or cells: CHO cells
T1 sequence (O95069 1-426): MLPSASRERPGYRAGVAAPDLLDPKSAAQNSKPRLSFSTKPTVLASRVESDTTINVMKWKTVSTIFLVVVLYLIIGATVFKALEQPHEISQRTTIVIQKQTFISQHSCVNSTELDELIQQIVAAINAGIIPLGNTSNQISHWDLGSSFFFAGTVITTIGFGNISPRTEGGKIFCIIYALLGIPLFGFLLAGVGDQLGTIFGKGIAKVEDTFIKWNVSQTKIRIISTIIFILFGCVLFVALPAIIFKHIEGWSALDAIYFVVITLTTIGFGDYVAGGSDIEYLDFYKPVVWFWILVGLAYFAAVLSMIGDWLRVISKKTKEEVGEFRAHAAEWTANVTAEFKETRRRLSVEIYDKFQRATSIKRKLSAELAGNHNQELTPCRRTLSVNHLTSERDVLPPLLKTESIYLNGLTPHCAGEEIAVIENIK
Method: FIG. 7. […] CHO cells were transfected with a plasmid encoding human TREK-1 and the current was studied by patch clamp. The current-voltage relation was determined using a ramp protocol that went from −130 mV to +40 mV in 6 s (after correction for the junction potential). Current was greater in the presence of meclofenamate. This is typical of 7 cells.
FIG. 8. […] CHO cells were transfected with a plasmid encoding human TREK-1 and the current was studied by patch clamp. The current-voltage relation was determined using a ramp protocol that went from −130 mV to +40 mV in 6 s (after correction for the junction potential). Current was less in the presence of trifluoperazine. This is typical of 3 cells.
CHO cells were transfected with a plasmid encoding human TREK-1 and the current was studied by patch clamp. The current-voltage relation was determined using a ramp protocol that went from −130 mV to +40 mV in 6 s (after correction for the junction potential). Current was greater in the presence of meclofenamate. This is typical of 7 cells.
CHO cells were transfected with a plasmid encoding human TREK-1 and the current was studied by patch clamp. The current-voltage relation was determined using a ramp protocol that went from −130 mV to +40 mV in 6 s (after correction for the junction potential). Current was less in the presence of trifluoperazine. This is typical of 3 cells.

[2] = test system: normal prostate epithelial cells (NPE) expressing TREK-1; experiment: MTT proliferation assay of normal prostate epithelial cells infected with TREK-1 adenovirus; type: cell-based; settings: sipatrigine 10 μM; compared with NPE/TREK-1 and other groups; five paired experiments
Method: FIG. 3. Dominant-negative TREK-1 reduces proliferation of PC-3 cells. PC-3 cells were transfected with either dn-TREK (or a control vector (PEGFP) using GeneJammer (Stratagene) under standard conditions. Proliferation of these cells was measured using the MTT assay after the cells were plated at 1×10^5 cells/well in 96 well plates. Data are presented as the mean ±SEM of five experiments. * p<0.05 vs control and EGFP
FIG. 5. Expression of TREK-1 increases proliferation of normal prostate epithelial cells (NPE). Normal prostate epithelial cell cultures were obtained from Clonetics and infected with a TREK-1-containing adenovirus. Some virally infected cells were also treated with sipatrigine (10 μM), a TREK-1 blocker. Cell proliferation was assessed using the MTT assay as described in FIG. 3.
Normal prostate epithelial cell cultures were obtained from Clonetics and infected with a TREK-1-containing adenovirus. Some virally infected cells were also treated with sipatrigine (10 μM), a TREK-1 blocker. Cell proliferation was assessed using the MTT assay as described in FIG. 3.

SMILES	Effect on TREK-1 current [1]	Cell proliferation (MTT) of TREK-1-infected NPE [2]
Cc1ccc(Cl)c(Nc2ccccc2C(=O)O)c1Cl [Meclofenamate, Meclofenamic acid]	activates TREK-1 current	–
CN1CCN(CCCN2c3ccccc3Sc3ccc(C(F)(F)F)cc32)CC1 [Trifluoperazine]	inhibits TREK-1 current	–
CN1CCN(c2ncc(-c3cc(Cl)cc(Cl)c3Cl)c(N)n2)CC1 [sipatrigine]	–	no other groups were different
